Laboratory results from ChEMBL document CHEMBL1201862, “PubChem BioAssay data set” (2004).
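In this assay, cells in 96-well plates receive the compound at five concentrations for 48 hours. Endpoints are linearly interpolated between the surrounding concentrations. GI50: concentration for 50% inhibition of growth.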 Active and inactive are the calls of the source. Cut-off read from the data, not from the text of the source: active = GI50 up to about 1.1 µM and inactive = higher.

Key:
Test in all cases: NCI-60 cell line screen, 48 h
COLO 205 = tested on: COLO 205
K562 = tested on: K562
SK-MEL-28 = tested on: SK-MEL-28
RXF 393 = tested on: RXF 393
SR = tested on: SR
SK-MEL-5 = tested on: SK-MEL-5
M14 = tested on: M14
786-0 = tested on: 786-0
UACC-257 = tested on: UACC-257
ACHN = tested on: ACHN
SN12C = tested on: SN12C
A549 = tested on: A549
OVCAR-3 = tested on: OVCAR-3
TK-10 = tested on: TK-10
SF-268 = tested on: SF-268
MDA-N = tested on: MDA-N
MCF7 = tested on: MCF7
NCI/ADR-RES = tested on: NCI/ADR-RES
EKVX = tested on: EKVX
OVCAR-5 = tested on: OVCAR-5
HOP-62 = tested on: HOP-62
SK-OV-3 = tested on: SK-OV-3
MDA-MB-231 = tested on: MDA-MB-231
RPMI-8226 = tested on: RPMI-8226
U-251 = tested on: U-251
OVCAR-8 = tested on: OVCAR-8
SNB-19 = tested on: SNB-19
HT-29 = tested on: HT-29
IGROV-1 = tested on: IGROV-1
HCT-116 = tested on: HCT-116
A498 = tested on: A498
MDA-MB-435 = tested on: MDA-MB-435
UACC-62 = tested on: UACC-62
LOX IMVI = tested on: LOX IMVI
HCC 2998 = tested on: HCC 2998
NCI-H460 = tested on: NCI-H460
NCI-H23 = tested on: NCI-H23
MOLT-4 = tested on: MOLT-4
SF-539 = tested on: SF-539
CCRF-CEM = tested on: CCRF-CEM
UO-31 = tested on: UO-31
DU-145 = tested on: DU-145
OVCAR-4 = tested on: OVCAR-4
SNB-75 = tested on: SNB-75
PC-3 = tested on: PC-3
KM12 = tested on: KM12
Hs-578T = tested on: Hs-578T
HL-60 = tested on: HL-60
SF-295 = tested on: SF-295
Malme-3M = tested on: Malme-3M
BT-549 = tested on: BT-549
SW-620 = tested on: SW-620
CAKI-1 = tested on: CAKI-1
HCT-15 = tested on: HCT-15
NCI-H226 = tested on: NCI-H226
HOP-92 = tested on: HOP-92
NCI-H522 = tested on: NCI-H522

SMILES: COC(=O)C1=C(C(=O)OC)SC(=C2c3ccsc3-c3sccc32)S1
- GI50 (COLO 205): 47.5 µM (inactive)
- GI50 (K562): 36.2 µM (inactive)
- GI50 (SK-MEL-28): 24.3 µM (inactive)
- GI50 (RXF 393): 18.3 µM (inactive)
- GI50 (SR): 34 µM (inactive)
- GI50 (SK-MEL-5): 31.9 µM (inactive)
- GI50 (M14): 36.6 µM (inactive)
- GI50 (786-0): 21.4 µM (inactive)
- GI50 (UACC-257): 64.4 µM (inactive)
- GI50 (ACHN): 74.8 µM (inactive)
- GI50 (SN12C): 65.8 µM (inactive)
- GI50 (A549): 37.2 µM (inactive)
- GI50 (OVCAR-3): 31 µM (inactive)
- GI50 (TK-10): 24.5 µM (inactive)
- GI50 (SF-268): 19.9 µM (inactive)
- GI50 (MDA-N): 70.3 µM (inactive)
- GI50 (MCF7): 27.4 µM (inactive)
- GI50 (NCI/ADR-RES): 62.8 µM (inactive)
- GI50 (EKVX): 27.3 µM (inactive)
- GI50 (OVCAR-5): > 100 µM (inactive)
- GI50 (HOP-62): 19.7 µM (inactive)
- GI50 (SK-OV-3): 12.3 µM (inactive)
- GI50 (MDA-MB-231): > 100 µM (inactive)
- GI50 (RPMI-8226): 76.9 µM (inactive)
- GI50 (U-251): 28.3 µM (inactive)
- GI50 (OVCAR-8): 29.1 µM (inactive)
- GI50 (SNB-19): 67.6 µM (inactive)
- GI50 (HT-29): 22.8 µM (inactive)
- GI50 (IGROV-1): 40.6 µM (inactive)
- GI50 (HCT-116): 25.9 µM (inactive)
- GI50 (A498): 24.5 µM (inactive)
- GI50 (MDA-MB-435): > 100 µM (inactive)
- GI50 (UACC-62): 26.6 µM (inactive)
- GI50 (LOX IMVI): > 100 µM (inactive)
- GI50 (HCC 2998): 40.6 µM (inactive)
- GI50 (NCI-H460): > 100 µM (inactive)
- GI50 (NCI-H23): 16.1 µM (inactive)
- GI50 (MOLT-4): 39.4 µM (inactive)
- GI50 (SF-539): 20.7 µM (inactive)
- GI50 (CCRF-CEM): 38.1 µM (inactive)
- GI50 (UO-31): 99.1 µM (inactive)
- GI50 (DU-145): > 100 µM (inactive)
- GI50 (OVCAR-4): > 10 µM (inactive)
- GI50 (SNB-75): 15.9 µM (inactive)
- GI50 (PC-3): 47 µM (inactive)
- GI50 (KM12): 40.3 µM (inactive)
- GI50 (Hs-578T): 14.9 µM (inactive)
- GI50 (HL-60): 24 µM (inactive)
- GI50 (SF-295): 17.6 µM (inactive)
- GI50 (Malme-3M): 43.2 µM (inactive)
- GI50 (BT-549): 29.4 µM (inactive)
- GI50 (SW-620): 69 µM (inactive)
- GI50 (CAKI-1): > 100 µM (inactive)
- GI50 (HCT-15): 53.7 µM
- GI50 (NCI-H226): 27.4 µM (inactive)

SMILES: Cc1ccc2c(=O)c3cccc(CC(=O)O)c3[nH]c2c1C
- GI50 (COLO 205): > 100 µM (inactive)
- GI50 (K562): > 100 µM (inactive)
- GI50 (SK-MEL-28): > 100 µM (inactive)
- GI50 (SR): > 100 µM (inactive)
- GI50 (SK-MEL-5): 33.3 µM (inactive)
- GI50 (M14): > 100 µM (inactive)
- GI50 (786-0): > 100 µM (inactive)
- GI50 (UACC-257): > 100 µM (inactive)
- GI50 (ACHN): > 100 µM (inactive)
- GI50 (SN12C): > 100 µM (inactive)
- GI50 (A549): > 100 µM (inactive)
- GI50 (OVCAR-3): 57.8 µM (inactive)
- GI50 (TK-10): > 100 µM (inactive)
- GI50 (SF-268): 17.5 µM (inactive)
- GI50 (MDA-N): > 100 µM (inactive)
- GI50 (MCF7): 71.6 µM (inactive)
- GI50 (NCI/ADR-RES): > 100 µM (inactive)
- GI50 (EKVX): > 100 µM (inactive)
- GI50 (HOP-62): > 100 µM (inactive)
- GI50 (SK-OV-3): > 100 µM (inactive)
- GI50 (MDA-MB-231): > 100 µM (inactive)
- GI50 (RPMI-8226): > 100 µM (inactive)
- GI50 (U-251): 27.9 µM (inactive)
- GI50 (OVCAR-8): > 100 µM (inactive)
- GI50 (SNB-19): > 100 µM (inactive)
- GI50 (HT-29): > 100 µM (inactive)
- GI50 (IGROV-1): > 100 µM (inactive)
- GI50 (HCT-116): > 100 µM (inactive)
- GI50 (A498): > 100 µM (inactive)
- GI50 (MDA-MB-435): 65.6 µM (inactive)
- GI50 (UACC-62): > 100 µM (inactive)
- GI50 (LOX IMVI): > 100 µM (inactive)
- GI50 (HCC 2998): > 10 µM (inactive)
- GI50 (NCI-H460): > 100 µM (inactive)
- GI50 (HOP-92): > 100 µM (inactive)
- GI50 (NCI-H23): > 100 µM (inactive)
- GI50 (MOLT-4): > 100 µM (inactive)
- GI50 (SF-539): > 100 µM (inactive)
- GI50 (CCRF-CEM): > 100 µM (inactive)
- GI50 (UO-31): > 100 µM (inactive)
- GI50 (DU-145): > 100 µM (inactive)
- GI50 (OVCAR-4): > 100 µM (inactive)
- GI50 (PC-3): > 100 µM (inactive)
- GI50 (KM12): > 100 µM (inactive)
- GI50 (Hs-578T): 72.1 µM (inactive)
- GI50 (HL-60): > 100 µM (inactive)
- GI50 (SF-295): > 100 µM (inactive)
- GI50 (Malme-3M): > 100 µM (inactive)
- GI50 (NCI-H522): > 100 µM (inactive)
- GI50 (BT-549): > 100 µM (inactive)
- GI50 (SW-620): > 100 µM (inactive)
- GI50 (CAKI-1): > 100 µM (inactive)
- GI50 (HCT-15): > 100 µM
- GI50 (NCI-H226): > 100 µM (inactive)
